# How the values were obtained:
# [1] = molecular target: T1, human glycogen phosphorylase a (Homo sapiens, UniProt P06737); experiment: Glycogen phosphorylase a activity assay (reverse direction, liberation of inorganic phosphate); format: biochemical; conditions: 10 μM test substance; in vitro; incubated at room temperature for 40 minutes; absorption at 820 nm
# T1 sequence (P06737 1-847): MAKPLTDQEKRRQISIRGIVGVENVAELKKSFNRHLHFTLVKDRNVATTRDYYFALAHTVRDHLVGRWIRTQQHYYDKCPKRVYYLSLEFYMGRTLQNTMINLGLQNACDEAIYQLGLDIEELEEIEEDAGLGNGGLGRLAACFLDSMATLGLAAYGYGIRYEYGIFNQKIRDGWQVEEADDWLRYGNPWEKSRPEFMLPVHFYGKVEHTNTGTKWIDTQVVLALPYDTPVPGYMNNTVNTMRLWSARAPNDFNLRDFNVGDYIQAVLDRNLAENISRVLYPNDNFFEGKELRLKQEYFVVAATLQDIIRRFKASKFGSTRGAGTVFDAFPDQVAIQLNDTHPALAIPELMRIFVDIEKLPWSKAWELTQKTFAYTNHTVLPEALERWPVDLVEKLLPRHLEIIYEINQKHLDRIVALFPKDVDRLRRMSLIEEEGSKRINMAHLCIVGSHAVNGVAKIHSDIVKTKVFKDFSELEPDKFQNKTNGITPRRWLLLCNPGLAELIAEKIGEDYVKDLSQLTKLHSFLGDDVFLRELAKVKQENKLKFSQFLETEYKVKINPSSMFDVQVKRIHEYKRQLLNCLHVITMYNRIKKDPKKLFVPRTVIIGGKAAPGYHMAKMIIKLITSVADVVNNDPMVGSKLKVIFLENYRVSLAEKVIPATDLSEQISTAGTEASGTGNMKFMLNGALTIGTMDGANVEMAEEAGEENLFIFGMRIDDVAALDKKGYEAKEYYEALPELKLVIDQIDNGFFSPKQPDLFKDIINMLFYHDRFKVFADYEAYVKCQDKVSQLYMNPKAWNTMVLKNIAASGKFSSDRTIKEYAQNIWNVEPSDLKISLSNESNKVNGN
# Description: Glycogen Phosphorylase a Activity Assay
# The effect of compounds on the activity of the active form of glycogen phosphorylase (GPa) was measured in the reverse direction by following the synthesis of glycogen from glucose 1-phosphate by determining the liberation of inorganic phosphate. All the reactions were carried out as duplicate determinations in microtiter plates with 96 wells (Half Area Plates, Costar No 3696), measuring the change in absorption owing to the formation of the reaction product at the wavelength specified hereinafter in a Multiskan Ascent Elisa Reader (Lab Systems, Finland).
# In order to measure the GPa enzymic activity in the reverse direction, the general method of Engers et al. (Engers H D, Shechosky S, Madsen N B, Can J Biochem 1970 July; 48(7):746-754) was used to measure the conversion of glucose 1-phosphate into glycogen and inorganic phosphate. […] The baseline glycogen phosphorylase a activity in the absence of test substance was determined by adding 10 μl of buffer solution T (0.1% DMSO). […] After incubation at 45° C. for 60 minutes, the absorption at 820 nm was measured. […]
compound,measurement,setting,value
"O=C(O)CCCCCOc1c(Cl)cc(NC(=O)NC(=O)c2ccccc2Cl)cc1Cl [Example 1, 6-{2,6-Dichloro-4-[(2-chlorobenzoyl)ureido]phenoxy}hexanoic Acid]",inhibition at 10 µM,[1],87%
same,melting point,,164 °C

# — patent US6506778B2, “Acylphenylurea derivatives, a process for their preparation and their use as pharmaceuticals” (Aventis Pharma Deutschland GmbH, priority 2000, dated 2003)
